Assay results: US20170334899A1, “AMINO-SUBSTITUTED ISOTHIAZOLES” (Bayer Pharma Aktiengesellschaft, priority 2014, published 2017)
Like-named read-outs stand apart in the source and are kept apart here.

What was measured:
[1] = target: T1, catalytic domain of human Bub1 (amino acids 704-1085) (Homo sapiens, UniProt O43683); assay: Bub1 kinase assay (TR-FRET); type: biochemical; details: 10 μM ATP, avg, read-out: Bub1 avg (IC50 [mol/l])
T1 construct: catalytic domain of human Bub1 (amino acids 704-1085); His6 (N); made in house; host or cells: insect cells (Hi5)
Method in brief: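 Readout is the 665/620 nm TR-FRET ratio from anti-phosphoserine antibody, Eu-labelled anti-mouse IgG and streptavidin-XL665, scaled between no-enzyme and uninhibited controls. Reaction: 1 μM biotinylated peptide, 10 μM ATP, 60 min, 22 °C, after 15 min compound preincubation with His6-Bub1 (704-1085, insect-expressed, ~200 ng/ml).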

HeLa = assay: Proliferation assay (crystal violet), HeLa; type: cell-based; details: HeLa cells, 4 days incubation, crystal violet staining, read-out: IC50 inhibition of proliferation, HeLa
Method in brief: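 Tumor cells seeded at 1000–5000 cells/well in medium with 10% FCS; after 24 h, compounds added at 0.001–10 μM (0.5% DMSO) for 4 days. Cells fixed with glutaraldehyde, stained with crystal violet, dye dissolved in acetic acid and read at 595 nm. IC50 from 4-parameter fit, normalized to zero-point plate and untreated cells.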

T1 sequence (O43683 704-1085): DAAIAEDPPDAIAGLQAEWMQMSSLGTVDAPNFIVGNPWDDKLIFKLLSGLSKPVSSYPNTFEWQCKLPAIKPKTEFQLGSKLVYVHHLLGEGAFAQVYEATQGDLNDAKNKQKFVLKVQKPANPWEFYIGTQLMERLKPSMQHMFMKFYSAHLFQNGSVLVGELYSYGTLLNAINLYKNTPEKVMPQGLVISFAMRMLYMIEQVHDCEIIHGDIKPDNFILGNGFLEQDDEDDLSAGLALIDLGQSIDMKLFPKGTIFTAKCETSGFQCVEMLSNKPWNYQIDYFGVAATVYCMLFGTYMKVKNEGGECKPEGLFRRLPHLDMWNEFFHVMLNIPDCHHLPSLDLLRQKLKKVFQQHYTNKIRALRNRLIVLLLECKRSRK

| SMILES | IC50 [1] [µM] | IC50 (HeLa; Homo sapiens, HeLa, 96 h) [µM] | IC50 (HeLa) [µM] |
| --- | --- | --- | --- |
| Cc1noc(-c2cccc(NC(=O)c3c(C)nsc3Nc3cnc4ccccc4n3)c2)n1 [Example 106, 3-Methyl-N-[3-(3-methyl-1,2,4-oxadiazol-5-yl)phenyl]-5-(quinoxalin-2-ylamino)-1,2-thiazole-4-carboxamide] | ≥ 20 | 1.7 | – |
| Cc1nsc(Nc2ccc(C#N)cn2)c1C(=O)Nc1ccc(Oc2cccc(C(F)(F)F)c2)nc1 [Example 118, 5-[(5-Cyanopyridin-2-yl)amino]-3-methyl-N-{6-[3-(trifluoromethyl)phenoxy]pyridin-3-yl}-1,2-thiazole-4-carboxamide] | ≥ 20 | 0.6 | – |
| Cc1nsc(Nc2cnc(C(F)(F)F)cn2)c1C(=O)Nc1ccc(OCC2CCN(C(=O)OC(C)(C)C)C2)nc1 (stereo not drawn) [Example 109, tert-Butyl 3-{[(5-{[(3-methyl-5-{[5-(trifluoromethyl)pyrazin-2-yl]amino}-1,2-thiazol-4-yl)carbonyl]amino}pyridin-2-yl)oxy]methyl}pyrrolidine-1-carboxylate] | ≥ 20 | 0.2 | – |
| Cc1nsc(Nc2cnc3ccccc3n2)c1C(=O)Nc1cccc(C(=O)N[C@H](C(=O)O)[C@@H](C)O)c1 [Example 105, N-[3-({[3-methyl-5-(quinoxalin-2-ylamino)-1,2-thiazol-4-yl]carbonyl}amino)-benzoyl]threonine] | 19 | 10 | – |
| Cc1nsc(Nc2cnc(C(F)(F)F)cn2)c1C(=O)Nc1ccc(O[C@H]2CCN(CCC(F)(F)F)C[C@H]2F)nc1 [Example 146, N-(6-{[(3R,4S)-3-fluoro-1-(3,3,3-trifluoropropyl)piperidin-4-yl]oxy}pyridin-3-yl)-3-methyl-5-{[5-(trifluoromethyl)pyrazin-2-yl]amino}-1,2-thiazole-4-carboxamide] | > 20 | 0.24 | – |
| Cc1nsc(Nc2cnc3ccccc3n2)c1C(=O)Nc1cccc(C(=O)N2CCCC2)c1 [Example 113, 3-Methyl-N-[3-(pyrrolidin-1-ylcarbonyl)phenyl]-5-(quinoxalin-2-ylamino)-1,2-thiazole-4-carboxamide] | 18 | 10 | – |
| Cc1nsc(Nc2cnc(C(F)(F)F)cn2)c1C(=O)Nc1ccc(OC[C@H]2CCN(CC(F)F)C2)nc1 [Example 132, N-(6-{[(3S)-1-(2,2-difluoroethyl)pyrrolidin-3-yl]methoxy}pyridin-3-yl)-3-methyl-5-{[5-(trifluoromethyl)pyrazin-2-yl]amino}-1,2-thiazole-4-carboxamide] | > 20 | 0.45 | – |
| Cc1nsc(Nc2cnc(C(F)(F)F)cn2)c1C(=O)Nc1ccc(O[C@H]2CCN(CC(F)(F)F)C[C@H]2F)nc1 [Example 145, N-(6-{[(3R,4S)-3-fluoro-1-(2,2,2-trifluoroethyl)piperidin-4-yl]oxy}pyridin-3-yl)-3-methyl-5-{[5-(trifluoromethyl)pyrazin-2-yl]amino}-1,2-thiazole-4-carboxamide] | > 20 | 0.16 | – |
| Cc1nsc(Nc2cnc(C(F)(F)F)cn2)c1C(=O)Nc1ccc(OC[C@@H]2CCCN(CCC(F)(F)F)C2)nc1 [Example 422, 3-Methyl-5-{[5-(trifluoromethyl)pyrazin-2-yl]amino}-N-(6-{[(3R)-1-(3,3,3-trifluoropropyl)piperidin-3-yl]methoxy}pyridin-3-yl)-1,2-thiazole-4-carboxamide] | ≥ 20 | – | 0.37 |
| Cc1nsc(Nc2cnc(C(F)(F)F)cn2)c1C(=O)Nc1ccc(C(=O)N2CCN(CC(F)F)CC2)cc1 [Example 154, N-(4-{[4-(2,2-difluoroethyl)piperazin-1-yl]carbonyl}phenyl)-3-methyl-5-{[5-(trifluoromethyl)pyrazin-2-yl]amino}-1,2-thiazole-4-carboxamide] | > 20 | 2.5 | – |
| Cc1nsc(Nc2cnc3ccccc3n2)c1C(=O)Nc1cccc(C(=O)N2CCNCC2)c1 [Example 101, 3-Methyl-N-[3-(piperazin-1-ylcarbonyl)phenyl]-5-(quinoxalin-2-ylamino)-1,2-thiazole-4-carboxamide] | 7.6 | 10 | – |
| Cc1nsc(Nc2cnc(C(F)(F)F)cn2)c1C(=O)Nc1ccc(O[C@@H]2CCN(CC(F)(F)F)C[C@@H]2F)nc1 [Example 138, N-(6-{[(3S,4R)-3-fluoro-1-(2,2,2-trifluoroethyl)piperidin-4-yl]oxy}pyridin-3-yl)-3-methyl-5-{[5-(trifluoromethyl)pyrazin-2-yl]amino}-1,2-thiazole-4-carboxamide] | > 20 | 0.14 | – |
| Cc1nsc(Nc2cnc3cc(F)ccc3n2)c1C(=O)Nc1ccc(S(N)(=O)=O)cc1 [Example 149, 5-[(6-fluoroquinoxalin-2-yl)amino]-3-methyl-N-(4-sulfamoylphenyl)-1,2-thiazole-4-carboxamide] | > 20 | > 10 | – |
| Cc1nsc(Nc2cnc(C(F)(F)F)cn2)c1C(=O)Nc1ccc(OCC2CCN(CCC(F)(F)F)C2)nc1 (stereo not drawn) [Example 124, 3-methyl-5-{[5-(trifluoromethyl)pyrazin-2-yl]amino}-N-(6-{[1-(3,3,3-trifluoropropyl)pyrrolidin-3-yl]methoxy}pyridin-3-yl)-1,2-thiazole-4-carboxamide] | ≥ 20 | 0.36 | – |
| Cc1nsc(Nc2cnc(C(F)(F)F)cn2)c1C(=O)Nc1ccc(OC2CCN(CC(F)(F)F)CC2)c(F)c1 [Example 163, N-(3-fluoro-4-{[1-(2,2,2-trifluoroethyl)piperidin-4-yl]oxy}phenyl)-3-methyl-5-{[5-(trifluoromethyl)pyrazin-2-yl]amino}-1,2-thiazole-4-carboxamide] | > 20 | 0.16 | – |
| Cc1nsc(Nc2cncc(C(F)(F)F)n2)c1C(=O)Nc1ccc(C(=O)NCCN2CCCC(F)C2)cc1 (stereo not drawn) [Example 155, N-(4-{[2-(3-fluoropiperidin-1-yl)ethyl]carbamoyl}phenyl)-3-methyl-5-{[6-(trifluoromethyl)pyrazin-2-yl]amino}-1,2-thiazole-4-carboxamide] | > 20 | 9.9 | – |
| CCCN1CC[C@@H](Oc2ccc(NC(=O)c3c(C)nsc3Nc3cnc(C(F)(F)F)cn3)cn2)[C@@H](F)C1 [Example 140, N-(6-{[(3S,4R)-3-fluoro-1-propylpiperidin-4-yl]oxy}pyridin-3-yl)-3-methyl-5-{[5-(trifluoromethyl)pyrazin-2-yl]amino}-1,2-thiazole-4-carboxamide] | > 20 | 0.22 | – |
| CCCCN1CC[C@H](Oc2ccc(NC(=O)c3c(C)nsc3Nc3cnc(C(F)(F)F)cn3)cn2)[C@H](F)C1 [Example 148, N-(6-{[(3R,4S)-1-butyl-3-fluoropiperidin-4-yl]oxy}pyridin-3-yl)-3-methyl-5-{[5-(trifluoromethyl)pyrazin-2-yl]amino}-1,2-thiazole-4-carboxamide] | > 20 | 0.37 | – |
